Assay results reported in paper PMC2535826, “Cross-Species Differential Plasma Protein Binding of MBX-102/JNJ39659100: A Novel PPAR-γ Agonist” (PPAR Research, 2008).
Where two headings read alike, the source gives them in different places.

Tests used:
mouse and human plasma = experiment: Competitive equilibrium dialysis, mouse versus human plasma; format: in vitro ADME, CD-1 mouse; conditions: 37°C, n = 5
Protocol: (§1) A comparison of the binding to plasma from different species was performed essentially by the method described below. Briefly, [^3H] MBX-102 acid spiked plasma samples were formulated as described above with the exception that pH was not adjusted to 7.4 and the final DMSO concentration was 0.6%. A 1 mL sample of spiked human plasma was applied to one side of the dialysis membrane and 1 mL of spiked animal plasma was applied to the other side. The samples were dialyzed by rotation at 20 rpm for up to 120 hours in a 37°C incubator. The ratio of free drug in plasma was calculated according to the equation: ratio of free drug (animal versus human) = (total cpm in human plasma)/(total cpm in animal plasma).

[1] = Plasma protein binding by equilibrium dialysis, mouse plasma; format: in vitro ADME, CD-1 mice; conditions: equilibrium dialysis vs PBS, 37°C, read-out: %Protein Binding ± SD (converted)
Protocol: Radiolabeled MBX-102 acid was prepared as a 1 mL ethanol solution at a concentration of 50 μM (1 mCi total). […] Final solvent concentrations were 1% of the total volume. Plasma was stored at −20°C. Prior to use, it was thawed and spun at approximately 2000 rpm for 5 minutes to remove any precipitated material. The pH was adjusted to pH 7.4 by careful addition of NaH2PO4. A 1 mL sample of spiked plasma was prepared by direct dilution of [^3H]-MBX-102 acid stock solution into plasma and then added to one side of an equilibrium dialysis chamber. The other chamber was filled with 1 mL of 0.01 M phosphate buffered saline (PBS). The dialysis apparatus was placed in a water bath at 37°C and rotated at 20 rpm. […] Once equilibrium was established, the contents of the cell chambers were removed and analyzed by liquid scintillation counting. The chambers were sampled in triplicate. […] The recovery percentage was found not to vary with MBX-102 acid concentration.

Gal 4-Mouse PPAR-γ LBD = target: T1, Gal 4-Mouse PPAR-γ LBD (Mus musculus, UniProt P37238); experiment: PPAR-γ reporter gene (transactivation) assay in HEK-293T cells with serum or serum proteins; format: cell-based
T1 construct: 5 μg Gal 4-Mouse PPAR-γ LBD; expressed in transfected cells; host or cells: HEK-293T
T1 sequence (P37238 238-503 limits assumed): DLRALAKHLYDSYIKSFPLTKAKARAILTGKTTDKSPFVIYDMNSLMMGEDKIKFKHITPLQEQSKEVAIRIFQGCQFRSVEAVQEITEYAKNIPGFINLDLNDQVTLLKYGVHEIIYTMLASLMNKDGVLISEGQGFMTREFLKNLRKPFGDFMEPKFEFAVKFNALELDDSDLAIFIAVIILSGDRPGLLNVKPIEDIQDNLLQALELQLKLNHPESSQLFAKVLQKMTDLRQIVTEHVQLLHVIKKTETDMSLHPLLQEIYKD
Protocol: All cells were maintained at 37°C in a humidified atmosphere of 8% CO2 in air.
For a pool sufficient to supply 100 wells, 6 million cells were diluted into medium for a total volume of 9 mL. The DNA-Lipofectamine 2000 mixture was prepared as per manufacturer’s instructions. For a pool sufficient to supply 100 wells, 5 μg Gal 4-Mouse PPAR-γ LBD, 5 μg pFR-Luciferase, and 500 ng Lac-z plasmids were mixed with 40 μL of Lipofectamine 2000 in Optimem medium in a total volume of 1 mL. The cell suspension was mixed with 1 mL of the DNA-Lipofectamine 2000 mixture. The mixture was plated into a 96-well plate and incubated for 4 hours at which time the transfection medium was removed and replaced with 100 μL DMEM, 10% (v/v) FBS and cultured overnight. The culture medium was then removed from the plates and replaced with 50 μL Pro293A medium. Compounds and charcoal stripped/delipidated serum or serum albumin, or alpha-1 acid glycoprotein stock solutions were prepared at 2X final concentration in Pro293A medium and mixed together prior to addition of 50 μL to the transfected cells and incubated for an additional 24 hours. Measurement of luciferase and fluorescence activity was performed according to the manufacturer’s instructions. Briefly, after removal of media, cells were incubated for 10 minutes in 100 μL of Steady-Glo reagent. An 80 μL lysate aliquot was transferred to opaque white well plates and the luminescence measured. The 80 μL aliquot was then transferred back to the original plate. […] Each experimental condition was assessed in quadruplicate. The data were normalized for each well by dividing the luminescence measurement by the fluorescence measurement. Dose-response curves were generated and EC50 values were calculated using Prism Graphpad version 5.1.

rat and human plasma = experiment: Competitive equilibrium dialysis, rat versus human plasma; format: in vitro ADME, Sprague-Dawley rat; conditions: 37°C, n = 5
Protocol: as §1

mouse serum albumin = target: T2, mouse serum albumin (Mus musculus, UniProt P07724); experiment: Albumin binding by surface plasmon resonance (SPR), MSA
T2 construct: purchased Sigma
T2 sequence (P07724 25-608): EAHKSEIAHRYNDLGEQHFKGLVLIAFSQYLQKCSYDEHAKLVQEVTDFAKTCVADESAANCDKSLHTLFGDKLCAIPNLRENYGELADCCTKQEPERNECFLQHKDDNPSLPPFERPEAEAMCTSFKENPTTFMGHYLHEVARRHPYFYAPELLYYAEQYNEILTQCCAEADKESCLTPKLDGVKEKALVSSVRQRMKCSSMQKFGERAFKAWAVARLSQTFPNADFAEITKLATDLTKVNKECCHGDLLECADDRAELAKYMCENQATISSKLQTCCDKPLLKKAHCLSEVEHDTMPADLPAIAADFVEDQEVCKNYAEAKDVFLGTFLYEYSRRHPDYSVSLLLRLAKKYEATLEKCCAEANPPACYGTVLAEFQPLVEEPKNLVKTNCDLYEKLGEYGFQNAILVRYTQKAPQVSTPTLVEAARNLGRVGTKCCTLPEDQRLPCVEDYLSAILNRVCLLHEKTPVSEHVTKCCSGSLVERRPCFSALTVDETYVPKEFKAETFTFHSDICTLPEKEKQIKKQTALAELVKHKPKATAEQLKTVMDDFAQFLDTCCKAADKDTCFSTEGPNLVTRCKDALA
Protocol: The characterization of the binding of MBX-102 acid against human, mouse, and rat albumin was performed using SPR-based biosensors (Biosensor Tools, Salt Lake City, Utah, USA). The assay methods used to assess the binding of MBX-102 acid to human, mouse, and rat albumins have been described previously. Briefly, each albumin was immobilized onto a CM5 sensor chip using standard amine coupling. Immobilization densities were between 10 000 and 13 000 RU. […] Each of the 16 different concentrations was tested in duplicate. […] All binding data were collected at 37°C. The binding response profile of MBX-102 acid over the three different albumin surfaces was evaluated and the binding constants for the high-affinity site were determined using a two-independent-site model. Conversion from KD to %bound was performed as previously described.

[2] = system: human alpha-1-acid glycoprotein; experiment: Equilibrium dialysis binding to purified human alpha-1-acid glycoprotein; format: in vitro ADME; conditions: purified human alpha-1-acid glycoprotein 22.5 μM, data not shown
Protocol: Stock solutions of human serum albumin and alpha-1-acid glycoprotein were prepared in PBS buffer. […] The spiked protein solution (175 μL) was added to one side of an equilibrium dialysis chamber, and an equal volume of PBS buffer was added to the other chamber. Dialysis was allowed to reach equilibrium and the binding to protein was determined by liquid scintillation counting of samples from both chambers as described above.

## O=C(O)[C@H](Oc1cccc(C(F)(F)F)c1)c1ccc(Cl)cc1 (stereo in doubt) [MBX-102 acid]
Mouse and human plasma; MBX-102 acid 100 μM
  Free Fraction Ratio Mouse:Human: 10.5 ± 5.5
Mouse and human plasma; MBX-102 acid 300 μM
  Free Fraction Ratio Mouse:Human: 5.9 ± 3.6
Mouse and human plasma; MBX-102 acid 700 μM
  Free Fraction Ratio Mouse:Human: 3.7 ± 1.9
Mouse and human plasma; MBX-102 acid 1000 μM
  Free Fraction Ratio Mouse:Human: 2.6 ± 1.1
Mouse and human plasma; MBX-102 acid 1300 μM
  Free Fraction Ratio Mouse:Human: 2.3 ± 0.7
[1]; CD-1, pH 7.4, MBX-102 acid 400 μM
  fraction unbound at 400 µM: 0.002
[1]; CD-1, pH 7.4, MBX-102 acid 600 μM
  fraction unbound at 600 µM: 0.003
[1]; CD-1, pH 7.4, MBX-102 acid 1000 μM
  fraction unbound at 1000 µM: 0.005
[1]; CD-1, pH 7.4, MBX-102 acid 1500 μM
  fraction unbound at 1500 µM: 0.002
[1]; CD-1, pH 7.4, MBX-102 acid 2000 μM
  fraction unbound at 2000 µM: 0.005
Gal 4-Mouse PPAR-γ LBD; 0% human serum albumin (Figure 3), 2–6 experiments, mean ± SD, read-out: EC50 PPAR-γ activation
  EC50: 14.4 ± 2.5 µM
Gal 4-Mouse PPAR-γ LBD; 0% serum (Figure 2), 3 experiments, mean ± SD, read-out: EC50 PPAR-γ activation
  EC50: 15.1 ± 1.9 µM
Gal 4-Mouse PPAR-γ LBD; 0.08% human serum albumin (Figure 3), 2–6 experiments, mean ± SD, read-out: EC50 PPAR-γ activation
  EC50: 44 ± 5.6 µM
Gal 4-Mouse PPAR-γ LBD; 2% (v/v) human serum (Figure 2), 3 experiments, mean ± SD, read-out: EC50 PPAR-γ activation
  EC50: 43.5 ± 6.9 µM
Gal 4-Mouse PPAR-γ LBD; 2% human serum
  fold change in mean EC50 relative to no serum: 3 fold
Gal 4-Mouse PPAR-γ LBD; 10% (v/v) human serum (Figure 2), 3 experiments, mean ± SD, read-out: EC50 PPAR-γ activation
  EC50: 288 ± 39.6 µM
Gal 4-Mouse PPAR-γ LBD; 10% human serum
  fold change in mean EC50 relative to no serum: 19 fold
Gal 4-Mouse PPAR-γ LBD; 10% human serum (Table 4, Figure 4), 3 experiments, read-out: Mean EC50 ± SD, Human
  EC50: 260 ± 16.9 µM
Gal 4-Mouse PPAR-γ LBD; 10% mouse serum (Table 4, Figure 4), 3 experiments, read-out: Mean EC50 ± SD, Mouse
  EC50: 170 µM
Gal 4-Mouse PPAR-γ LBD; 10% rat serum (Table 4, Figure 4), 3 experiments, read-out: Mean EC50 ± SD, Rat
  EC50: 196 ± 18 µM
Gal 4-Mouse PPAR-γ LBD; 20% (v/v) human serum (Figure 2), 3 experiments, mean ± SD, read-out: EC50 PPAR-γ activation
  EC50: 442 ± 29.8 µM
Gal 4-Mouse PPAR-γ LBD; 20% human serum
  fold change in mean EC50 relative to no serum: 29 fold
Rat and human plasma; MBX-102 acid 100 μM
  Free Fraction Ratio Rat:Human: 2.3 ± 0.6
Rat and human plasma; MBX-102 acid 300 μM
  Free Fraction Ratio Rat:Human: 2.3 ± 0.6
Rat and human plasma; MBX-102 acid 700 μM
  Free Fraction Ratio Rat:Human: 2.0 ± 0.3
Rat and human plasma; MBX-102 acid 1000 μM
  Free Fraction Ratio Rat:Human: 1.8 ± 0.2
Rat and human plasma; MBX-102 acid 1300 μM
  Free Fraction Ratio Rat:Human: 1.7 ± 0.2
Mouse serum albumin; converted from KD
  %Bound: 99.2%
Mouse serum albumin; high-affinity site, two-independent-site model, 37°C, pH 7.4
  Kd: 5.5 µM
[2]
  binding to human alpha 1-acid glycoprotein: < 5%
